PMC10671074, “Tumor Regression upon Intratumoral and Subcutaneous Dosing of the STING Agonist ALG-031048 in Mouse Efficacy Models” (International Journal of Molecular Sciences, 2023)
Where “and” joins values, the source holds several entries; their conditions need not be identical. Identical values can stand only once.

Columns and labels:
[1] = target: STING R232 (Homo sapiens, UniProt Q86WV6, H232R); test: Thermal shift binding assay (differential scanning fluorimetry)
Description: Each sample was prepared in a total volume of 40 μL that contained a 5× final concentration of SYPRO orange (Invitrogen, Carlsbad, CA, USA) in buffer (20 mM of HEPES pH 7.5, 150 mM of NaCl, 1 mM of DTT, and 1 mM of MgCl2) and 4 μM of STING C-terminal domain protein with and without a test article. […] The resulting fluorescence intensity from the raw dissociation curve data were used to determine the melting temperature for STING protein alone or with a compound. Melting temperature from protein alone was then subtracted from all melting temperatures of protein in the presence of compound, and a resulting melting temperature vs. compound concentration provided apparent Kd values as generated using a sigmoidal dose–response (variable slope) equation in GraphPadPrism version 8.0 (GraphPad Software, Boston, MA, USA).

[2] = system: CT26 tumors; test: Re-challenge with CT26 of mice with complete tumor regression; assay type: in vivo, mouse
Description: Ten naïve, age-matched female BALB/c mice were used as controls. […] Tumor growth was measured as described above.

[3] = system: HEK 293 cells lacking functional STING; test: HEK 293 STING Dual Null IRF reporter assay
Description: Assays were set up after allowing cells to adhere for 48 h. Compounds dissolved in water were serially diluted in dosing buffer containing 10 µg/mL of digitonin (MP Biomedicals, Solon, OH, USA). Media were aspirated from the cells, and 50 µL of buffer with compound was added in triplicate. […] The next day, 20 µL of media was transferred to two new plates, and either 50 µL of QuantiLuc™ (Invivogen) to measure IFN-β expression or 80 µL of QuantiBlue™ (Invivogen) to measure IRF activity were added. […] An aliquot of 100 µL of CellTiter-Glo® (Promega, Madison, WI, USA) was added to the original plate still containing the cells, and luminescence was determined to measure viability. All readouts were measured on an Envision plate reader from Perkin Elmer. Data were analyzed using GraphPad™ Prism’s version 8.0 [Agonist] vs. response—variable slope (four parameters) model.
with increasing concentrations of the STING agonists or IFN‐β. After 24 hours, IRF reporter activity

[4] = target: T1, ENPP1 (Homo sapiens, UniProt P22413); test: ENPP1 stability assay; assay type: in vitro ADME; conditions: pH 9.5; 100 μM STING agonist, 26.5 nM recombinant human ENPP1, 37 °C, up to 2 h; read-out: ENPP1 t½
T1 construct: purchased R&D Systems
T1 sequence (P22413 1-925): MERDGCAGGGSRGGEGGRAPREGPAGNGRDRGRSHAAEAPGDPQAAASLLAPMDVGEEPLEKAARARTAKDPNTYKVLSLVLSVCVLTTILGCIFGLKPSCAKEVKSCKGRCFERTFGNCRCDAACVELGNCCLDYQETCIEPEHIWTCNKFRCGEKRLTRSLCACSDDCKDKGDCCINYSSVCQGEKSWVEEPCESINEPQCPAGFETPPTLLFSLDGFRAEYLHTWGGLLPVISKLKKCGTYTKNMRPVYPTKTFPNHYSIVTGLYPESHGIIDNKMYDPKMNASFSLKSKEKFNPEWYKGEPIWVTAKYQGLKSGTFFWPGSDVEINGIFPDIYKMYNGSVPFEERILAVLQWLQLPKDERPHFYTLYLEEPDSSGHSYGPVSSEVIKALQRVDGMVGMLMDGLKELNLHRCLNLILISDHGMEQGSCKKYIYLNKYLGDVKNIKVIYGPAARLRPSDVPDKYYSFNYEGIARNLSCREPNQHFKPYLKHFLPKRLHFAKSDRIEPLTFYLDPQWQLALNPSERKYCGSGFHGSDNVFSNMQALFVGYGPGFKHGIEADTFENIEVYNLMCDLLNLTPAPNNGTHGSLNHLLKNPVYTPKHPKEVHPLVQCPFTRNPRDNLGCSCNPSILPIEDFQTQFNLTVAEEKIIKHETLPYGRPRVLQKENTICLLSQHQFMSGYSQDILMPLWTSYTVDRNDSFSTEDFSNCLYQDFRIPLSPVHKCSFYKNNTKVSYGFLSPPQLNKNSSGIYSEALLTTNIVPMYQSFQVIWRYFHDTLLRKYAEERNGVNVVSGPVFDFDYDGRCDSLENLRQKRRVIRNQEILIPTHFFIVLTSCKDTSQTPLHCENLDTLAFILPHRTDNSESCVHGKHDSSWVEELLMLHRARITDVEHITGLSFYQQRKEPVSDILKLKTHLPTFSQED

[5] = system: plasma cytokines; test: Plasma cytokine analysis in CT26-tumor-bearing mice; assay type: in vivo, mouse; conditions: CT26-bearing BALB/c, one IT dose of 100 μg, 4 h after dosing
Description: Plasma levels of IFN-α, IFN-β, IL-2, TNF-α, IL-6, IL-12, IP-10, IFN-γ, and MCP-1 (in pg/mL) were measured using the ProcartaPlex 9-Plex (ThermoFisher Scientific) according to the manufacturer’s instructions. Data were processed using Milliplex Analyst software version 5.1 on a MAGPIX instrument (Luminex Corp., Austin, TX, USA).
Figure S5. Plasma cytokine levels in female BALB/c mice bearing SC CT26 tumors receiving one IT dose of 100 μg ADU‐S100 or ALG‐031048, at a mean TV of 116 mm3. Cytokine concentrations were analyzed 4 hours after dos ing. Only statistically significant differences (unpaired, parametric t test) are indicated by brackets.
(also on this page, place not known: pg/ml pg/ml pg/ml pg/ml pg/ml pg/ml pg/ml pg/ml pg/ml dosing.) […]
1 mg 4 mg Saline 25 g/kg S /kg SC
Figure S8. Cytokine induction in CT26 tumor‐bearing mice upon SC administration of ALG‐031048.
10 mice per group were treated with 3 doses 3 days apart. Plasma samples were collected 6 hours […]

[6] = system: subcutaneous CT26 tumors; test: CT26 mouse colon carcinoma model
Description: Each mouse was inoculated subcutaneously in the right flank with 3 × 10^5 CT26 cells (in 0.1 mL PBS) for tumor development.
PBS was used as the vehicle control. […] Vehicles and test compounds were administered IT q3d × 3 in a volume of 0.05 mL. SC administration was performed between the shoulder blades at a dosing volume of 10 mL/kg. Tumors were measured twice a week in two dimensions using calipers, and volume was calculated using Formula (1):Tumor Volume (mm^3) = 0.5 (w^2 × l)(1)
Here, w = width and l = length, in mm, of a tumor.
Tumor weight was estimated with the assumption that 1 mg is equivalent to 1 mm^3 of tumor volume.
Animals were euthanized when (1) their tumor reached the endpoint volume of 2000 mm^3, (2) their body weight loss exceeded 30%, or (3) on the last day of the study, whichever came first. The TTE for analysis was calculated for each mouse by the following Equation (2):TTE = (log10 (endpoint volume) − b)/m(2)
TTE is expressed in days, endpoint volume is expressed in mm^3, b is the intercept, and m is the slope of the line obtained via linear regression of a log-transformed tumor growth data set. […] Animals were weighed on Days 1–5, then twice weekly for the duration of the study.

Sequence of STING R232 (Q86WV6 139-379 H232R): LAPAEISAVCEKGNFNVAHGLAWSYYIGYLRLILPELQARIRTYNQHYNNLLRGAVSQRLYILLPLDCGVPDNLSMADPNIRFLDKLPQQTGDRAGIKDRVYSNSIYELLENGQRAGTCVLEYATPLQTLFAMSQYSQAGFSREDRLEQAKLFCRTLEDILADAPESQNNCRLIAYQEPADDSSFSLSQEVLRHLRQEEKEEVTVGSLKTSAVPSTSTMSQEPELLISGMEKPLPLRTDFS

SMILES: CO[C@H]1[C@H]2OP(=O)(O)OC[C@@]34C[C@@H]3[C@@H](n3cnc5c(N)ncnc53)[C@H](O)[C@@H]4O[P@](=O)(S)OC[C@H]1O[C@H]2n1cnc2c(=O)[nH]c(N)nc21 [ALG-031048]
- Kd [1]: 2710 nM
- Maximum temperature shift ([1]; STING R232 thermal shift assay, mean±standard deviation): 13.8 °C and 13.8±2.98 °C
- Animals with complete tumor suppression (TV < 10 mm^3) after CT26 re-challenge ([2]; Figure 5C, previously 100 μg IT × 3, CT26 left flank, 25 days, no further treatment): six
- TV at last measurement of animals with delayed tumor growth after CT26 re-challenge ([2]; Figure 5C, three animals): 40–221 mm^3
- TV at end of study of remaining re-challenged animal ([2]; complete responders to 100 μg IT 3 × q3d, CT26 re-challenge): 864 mm^3
- Animals with tumor growth suppressed after CT26 re-challenge ([2]; complete responders to 100 μg IT 3 × q3d, re-challenged on opposite flank, 40 days without additional treatment): 8 of 9
- STING dependence of cellular activation (IRF reporter) ([3]; HEK 293 R232 cells vs control cells lacking STING expression, 24 hours): dependent on the expression of STING
- EC50 ([3]; Homo sapiens, HEK293, read-out: Reporter Cell Assay EC50, STING Dual Null IRF): > 100000 nM
- half-life at 100 μM [4]: > 2 h
- Plasma cytokines after IT dosing [5]: increased cytokines such as IFN-α and -β, TNF-α, interleukin 6 (IL-6), MCP-1, and IP-10
- Animals with complete response (TV < 10 mm^3) at end of study ([6]; CT26, 4 mg/kg SC, 3 × q3d): one
- Animals with tumors regressed and undetectable at end of study ([6]; Table 2 study, 100 μg IT, three doses): 9 of 10
